From PMC10147923, “Pain-causing stinging nettle toxins target TMEM233 to modulate NaV1.7 function” (Nature Communications, 2023)
Where “and” joins values, the source holds several entries; their conditions need not be identical. Identical values can stand only once. Like-named read-outs stand apart in the source and are kept apart here. Positions of bridges follow the written chain, without caps; N, C: chain ends. Residues, ends and D or L forms follow the SMILES beside them.

Key:
[1] = test system: TE-671 cells, TMEM233 KO; type: cell-based; settings: ExTxA 1 µM
[2] = target: NaV1.7 (Homo sapiens, UniProt Q15858); type: cell-based; settings: ExTxA 100 nM; individual cells
[3] = test system: NaV currents in ND7/23 cells; test: Persistent current, ND7/23 cells; type: cell-based; settings: ExTxA 1 µM; individual cells
[4] = target: T1, NaV1.7/TMEM233 (Homo sapiens, UniProt B4DJY2+Q15858); type: cell-based
Method: HEK293-NaV1.7 cells were transfected with TMEM233, CRELD1, LMAN2L, MMGT1, RNF121 and STT3B and co-transfected with five plasmids coding for the Glycosylphosphatidylinositol (GPI) complex (GPAA1, PIGK, PIGS, PIGU, PIGT) using Lipofectamine 2000. After 24 h, transfected cells were harvested and plated at a density of 10,000–15,000 cells per well on black-walled 384-well imaging plates. Plated cells were cultured for a further 24 h at 37 °C and 5% CO2. FLIPR (Fluorescent Imaging Plate Reader) Red membrane potential assay dye (Molecular Devices, California, USA) was diluted in physiological salt solution according to the manufacturer’s instructions (PSS, in mM: NaCl 140, glucose 11.5, HEPES 10, KCl 5.9, MgCl2 1.4, NaH2PO4 1.2, NaHCO3 5, CaCl2 1.8, pH 7.4). Growth medium was removed from the plate and replaced with 20 µL of FLIPR Red membrane potential assay dye per well and incubated in the dark at 37 °C for 60 min. […] Fluorescence responses to ExTxA were computed as the maximum change in fluorescence over baseline (ΔF/F0) using ScreenWorks (Molecular Devices, Version 5.1.2.94).

[5] = test system: total NaV current in Tmem233Cre/Cre DRG neurons; test: Persistent NaV current, Tmem233Cre/Cre DRG neurons; type: cell-based, mouse
[6] = test system: hNaV1.5; test: Persistent current, HEK293-hNaV1.5/β1; type: cell-based, human; settings: ExTxA 1 µM
[7] = test system: Cos-1 cells; test: Currents in untransfected Cos-1 cells; type: cell-based; settings: ExTxA 1 µM, mean ± SEM, n = 6
Method: Whole-cell patch clamp experiments involving HEK293, COS-1, CHO, ND7/23, F11, SH-SY5Y and TE-671 cells were performed on a QPatch II automated electrophysiology platform (Sophion Bioscience, Ballerup, Denmark) as previously described. Cells at approximately 70–80% confluency were harvested from T75 flasks using TrypLE Express at 37 °C for 2–5 min and resuspended in DMEM with 25 mM HEPES (Sigma-Aldrich, NSW, Australia), 100 U/mL Penicillin-Streptomycin (Gibco) and 40 µg/mL trypsin inhibitor from Glycine max (soybean) (Sigma Aldrich) prior to recovery on a QStirrer (Sophion) for 30 min. 16-channel patch plates with a patch hole diameter of 1 μm and resistance of 2 ± 0.02 MΩ were used. Cell positioning and sealing parameters were as follows: positioning pressure −60 mbar, minimum seal resistance 0.1 GΩ, holding potential −100 mV, holding pressure −20 mbar. Whole-cell currents were filtered at 5 kHz and acquired at 25 kHz. Series resistance compensation was used and set to 70%.

[8] = target: NaV1.7/TRARG1 (Homo sapiens, UniProt Q15858+Q8IXB3); type: cell-based
[9] = test system: NaV1.8; type: cell-based, mouse
[10] = test system: NaV currents in F11 cells; test: Persistent current, F11 cells; type: cell-based; settings: ExTxA 1 µM; individual cells
[11] = test system: Tmem233Cre/Cre knockout mice; test: Nocifensive behaviors after intraplantar injection, Tmem233Cre/Cre mice; type: in vivo, mouse
Method: Nocifensive responses to intraplantar administration of ExTxA (5–10 nM) were assessed as previously described. In brief, ExTxA was diluted in sterile saline/0.1% BSA and administered by an intraplantar injection (40 μL) into a single hind paw of Tmem233^Cre/Cre, NaV1.7^Advill and wild-type littermate controls. Pain behaviors, consisting of paw licks or flinches, were counted from video recordings by a blinded investigator for up to 60 min following injection.

[12] = test system: hNaV1.4; test: Persistent current, HEK293-hNaV1.4/β1; type: cell-based, human; settings: ExTxA 1 µM
[13] = target: T1, NaV1.7/TMEM233; test: Ramp currents with ExTxA, HEK293 NaV1.7/TMEM233; type: cell-based
[14] = test system: wild-type C57BL/6 mice; settings: cited from earlier work
[15] = best-fit value, log(agonist) vs. response -- variable slope (four parameters)

Chain of NaV1.7/TRARG1 (Q07699 19-218): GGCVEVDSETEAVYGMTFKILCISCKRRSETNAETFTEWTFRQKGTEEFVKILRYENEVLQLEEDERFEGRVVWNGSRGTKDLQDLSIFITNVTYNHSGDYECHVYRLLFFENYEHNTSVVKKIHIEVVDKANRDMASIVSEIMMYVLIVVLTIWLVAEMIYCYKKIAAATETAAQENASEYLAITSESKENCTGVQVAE
Chain of NaV1.7/TRARG1 (Q15858 whole entry): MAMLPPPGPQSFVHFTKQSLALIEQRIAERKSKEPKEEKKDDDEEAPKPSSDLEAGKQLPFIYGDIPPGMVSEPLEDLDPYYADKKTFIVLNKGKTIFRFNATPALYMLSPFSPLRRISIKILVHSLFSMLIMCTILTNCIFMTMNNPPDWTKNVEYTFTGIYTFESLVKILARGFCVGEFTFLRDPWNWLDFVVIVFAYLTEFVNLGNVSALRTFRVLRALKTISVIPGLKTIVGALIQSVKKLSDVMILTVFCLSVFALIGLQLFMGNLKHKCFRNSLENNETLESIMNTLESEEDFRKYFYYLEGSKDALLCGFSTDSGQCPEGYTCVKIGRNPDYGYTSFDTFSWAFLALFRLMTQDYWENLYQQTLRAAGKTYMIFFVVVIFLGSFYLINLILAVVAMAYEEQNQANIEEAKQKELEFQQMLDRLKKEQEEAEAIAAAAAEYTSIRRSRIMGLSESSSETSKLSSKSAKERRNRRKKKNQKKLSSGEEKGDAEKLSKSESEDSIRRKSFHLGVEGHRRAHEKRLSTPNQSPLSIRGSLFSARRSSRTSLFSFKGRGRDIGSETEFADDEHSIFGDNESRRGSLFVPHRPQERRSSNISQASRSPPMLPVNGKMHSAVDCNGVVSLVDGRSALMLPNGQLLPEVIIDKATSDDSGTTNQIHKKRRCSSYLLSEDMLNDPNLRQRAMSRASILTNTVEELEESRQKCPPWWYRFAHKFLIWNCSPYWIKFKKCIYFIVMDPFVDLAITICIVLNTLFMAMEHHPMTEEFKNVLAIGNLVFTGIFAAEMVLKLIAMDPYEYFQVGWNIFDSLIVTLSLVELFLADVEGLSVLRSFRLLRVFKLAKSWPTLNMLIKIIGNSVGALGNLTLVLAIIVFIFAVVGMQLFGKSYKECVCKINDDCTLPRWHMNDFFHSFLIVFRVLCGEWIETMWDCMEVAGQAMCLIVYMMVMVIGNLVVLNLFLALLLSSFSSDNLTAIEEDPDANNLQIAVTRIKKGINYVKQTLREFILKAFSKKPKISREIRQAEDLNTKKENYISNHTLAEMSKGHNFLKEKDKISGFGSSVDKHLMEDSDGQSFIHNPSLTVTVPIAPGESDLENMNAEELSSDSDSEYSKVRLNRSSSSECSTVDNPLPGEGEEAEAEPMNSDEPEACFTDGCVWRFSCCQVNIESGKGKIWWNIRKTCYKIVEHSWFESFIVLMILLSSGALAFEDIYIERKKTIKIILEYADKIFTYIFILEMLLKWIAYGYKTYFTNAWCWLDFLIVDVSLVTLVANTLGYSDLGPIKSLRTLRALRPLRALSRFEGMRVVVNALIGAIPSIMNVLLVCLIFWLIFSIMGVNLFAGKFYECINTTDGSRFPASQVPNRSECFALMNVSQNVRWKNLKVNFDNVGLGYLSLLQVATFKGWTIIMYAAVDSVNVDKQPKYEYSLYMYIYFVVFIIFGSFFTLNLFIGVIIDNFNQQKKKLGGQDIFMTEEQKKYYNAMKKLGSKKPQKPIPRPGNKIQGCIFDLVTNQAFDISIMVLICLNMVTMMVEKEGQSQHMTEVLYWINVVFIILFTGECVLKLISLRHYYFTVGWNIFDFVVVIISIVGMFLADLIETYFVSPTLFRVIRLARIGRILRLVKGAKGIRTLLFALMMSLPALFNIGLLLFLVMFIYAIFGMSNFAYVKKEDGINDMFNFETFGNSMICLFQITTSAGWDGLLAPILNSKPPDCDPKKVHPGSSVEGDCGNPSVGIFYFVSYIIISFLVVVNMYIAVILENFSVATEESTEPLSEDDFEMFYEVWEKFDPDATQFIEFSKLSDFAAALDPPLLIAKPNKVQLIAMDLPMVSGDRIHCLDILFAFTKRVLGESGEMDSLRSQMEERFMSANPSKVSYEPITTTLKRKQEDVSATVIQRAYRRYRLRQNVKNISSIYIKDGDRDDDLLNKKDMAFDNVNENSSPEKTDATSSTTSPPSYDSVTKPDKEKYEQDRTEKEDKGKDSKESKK
Chain of NaV1.7/TRARG1 (Q8IXB3 whole entry): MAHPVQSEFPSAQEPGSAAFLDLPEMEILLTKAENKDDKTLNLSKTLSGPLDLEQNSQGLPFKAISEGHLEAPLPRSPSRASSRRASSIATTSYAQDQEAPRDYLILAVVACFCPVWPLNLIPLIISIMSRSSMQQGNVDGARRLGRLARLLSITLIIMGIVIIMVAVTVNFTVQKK
Chain of NaV1.7 (Q15858 whole entry): as the sequence (Q15858 whole entry) above
Chain of NaV1.7 (Q07699 19-218, further chain): as the sequence (Q07699 19-218) above

## CC[C@H](C)[C@@H]1NC(=O)[C@H](CCCNC(=N)N)NC(=O)[C@H](Cc2ccccc2)NC(=O)[C@H](CC(C)C)NC(=O)[C@H](CO)NC(=O)[C@@H]2CSSC[C@@H]3NC(=O)[C@H]([C@@H](C)O)NC(=O)[C@H](CSSC[C@H](NC(=O)[C@H](CCCNC(=N)N)NC(=O)[C@@H]4CCCN4C(=O)[C@@H](N)CC(C)C)C(=O)N[C@@H](CC(=O)O)C(=O)N[C@@H](CO)C(=O)N4CCC[C@H]4C(=O)N[C@@H](Cc4ccccc4)C(=O)N2)NC(=O)[C@H](CCCCN)NC(=O)[C@H](CC(=O)O)NC(=O)CNC(=O)[C@H](CSSC[C@@H](C(=O)N[C@H](C(=O)N2CCC[C@H]2C(=O)N[C@@H](CC(=O)O)C(=O)N[C@H](C(=O)O)C(C)C)C(C)C)NC(=O)[C@H](CC(C)C)NC(=O)CNC(=O)[C@H](Cc2ccccc2)NC(=O)[C@H]([C@@H](C)CC)NC(=O)[C@@H]2CCCN2C(=O)[C@H](CC(C)C)NC(=O)[C@@H]2CCCN2C(=O)[C@H](C(C)C)NC3=O)NC(=O)[C@H](CC(C)C)NC(=O)CNC1=O [ExTxA, excelsatoxin A] (H-LPRCDSPFCSLFRIGLCGDKCTCVPLPIFGLCVPDV-OH; disulfide 4-21, 9-23, 17-32)
[1]
  Difference between means (B - A), TMEM233-/- minus wildtype: -0.7661 ± 0.02026
[1]; TMEM233-/-, individual cells
  persistent current (I40 ms/Ipeak): 0.1031 and 0.03299 and 0.02248 and 0.06663 and 0.03142 and 0.02781
[2]
  hiPSC-derived sensory neurons persistent current (I40 ms/Ipeak): 0.1753 and 0.2081 and 0.0959 and 0.1857 and 0.092
[3]
  persistent current (I40 ms/Ipeak): 0.0148 and -0.04643 and -0.01725 and -0.02481 and 0.06313 and -0.01347 and 0.009823 and -0.02206 and -0.05173 and 0.0293 and -0.02358
[4]
  DF/F: 0.3009 and 0.2755
[4]; ExTxA 1 µM, TMEM233, mean, n = 3
  ΔF/F in NaV1.7 HEK293: 0.29 ± 0.0075 and 0.2867
[4]; ExTxA 1 µM, TMEM233, replicate 3
  DF/F: 0.2837
[4]; [15]
  Bottom: 0.07296
  HillSlope: 1.156
  LogEC50: -8.146
  Span: 0.6962
  Top: 0.7692
[4]; of all 10 gene hits
  ExTxA-sensitivity of NaV1.7-expressing HEK293 cells: only expression of TMEM233 imparted ExTxA-sensitivity to NaV1.7-expressing HEK293 cells
[5]
  persistent current, Mean diff, A2 - B2: 0.4591
[5]; ExTxA 30 nM, Tmem233Cre KO, mean ± SEM, n = 7
  ExTxA-induced persistent current (I40ms/Ipeak; nA) in DRG neurons: 0.114 ± 0.04
[6]; individual cells
  persistent current (I40 ms/Ipeak): 0.001512 and 0.003695 and 0.000623 and -0.00019 and 0.001997 and -0.00321 and -0.00096 and -7.2e-5 and 0.000901 and 0.000208 and 0.000397
[6]; mean
  Δ persistent current (I40 ms/Ipeak; buffer cf. ExTxA): 0.0004 ± 0.0005 and 0.0003926
[7]
  ExTxA-induced persistent current: -2.019 ± 5.908 pA
[8]; Nav1.7/TRARG1, 95% CI -6.511 to -5.182, Fig 4g
  LogEC50: -5.623
[8]; Nav1.7/TRARG1, Fig 4g
  HillSlope: 0.6926
[8]; Nav1.7/TRARG1, best-fit, constraint Top < 1, Fig 4g
  Top: 1
[8]; co-expression with NaV1.7
  ExTxA-induced currents with TRARG1: resulted in ExTxA-induced persistent currents
[9]
  DRG NaV1.8 Δ persistent current (I40 ms/Ipeak): 0.050 ± 0.015
[10]
  persistent current (I40 ms/Ipeak): 0.004557 and -0.00296 and -0.00917 and -0.00017 and -0.00072 and 0.02041
[11]; TMEMCre KO, 0-40 min, individual animals, one line each (n = 16)
  nocifensive behaviors, 0-40 min combined (Fig. 3g): 8 and 6 and 329 and 151 and 352 and 36 and 124 and 41 and 45 and 71 and 136 and 66 and 142 and 96
[11]; TMEMCre KO, 0-40 min, mean, n = 16
  nocifensive behaviors, 0-40 min combined, mean (Fig. 3g): 115.9
[11]; i.pl. ExTxA 10 nM, Tmem233Cre KO, mean ± SEM, n = 16
  ExTxA-induced pain behaviours (cumulative paw licks and flinches over 40 min): 115.9 ± 25.3
[11]; mouse, in vivo
  ExTxA-induced nocifensive behaviors in Tmem233Cre/Cre KO mice: significantly reduced
  nocifensive behaviors, 0-40 min combined, difference between means (B - A) ± SEM (Fig. 3g): -118.4 ± 37.67
[12]; individual cells
  persistent current (I40 ms/Ipeak): -0.00323 and 0.000561 and 0.001128 and 1.82e-5 and 3.19e-5 and 0.001575 and 0.001393 and -0.00031 and -0.00116
[12]; mean
  Δ persistent current (I40 ms/Ipeak; buffer cf. ExTxA): 7.89E-07 ± 0.0005 and 7.889e-7
[13]
  Ramp current (0.2 mV/s): -1.952 ± 0.950 nA
[13]; NaV1.7-TMEM233 + ExTxA (100 nM), individual cells
  Ramp current: -2.267 and -0.5155 and -0.3095 and -7.0521 and -0.7027 and -0.3607 and -2.095 and -0.6283
[13]; extracellular ExTxA
  currents induced by slow voltage-ramps: an increase of currents induced by slow voltage-ramps
[14]
  pain behavior after intraplantar administration in mice: elicits spontaneous pain behaviors and an axon reflex flare following intraplantar administration in mice
